{"source": "patent US6310091A", "about": "“Fungicidal saponin, CAY-1, and isolation thereof from Capsium species fruit” (The United States of America as represented by the …, priority 2000, dated 2001)", "key": {"[1]": {"test_system": "Candida species", "conditions": "a number of Candida species; cited from earlier work"}, "[2]": {"test_system": "Pneumocystis carinii", "assay": "Effect on Pneumocystis carinii viability (ATP-driven bioluminescent assay)", "type": "cell-based", "conditions": "Pneumocystis carinii, read-out: Percent of Control Mean", "method": "3. Pneumocystis carinii. The effect of CAY-1 on Pneumocystis carinii was determined as described previously [Cushion et al., Antimicrob. Agents Chemother., 1997, 41:379-384, herein incorporated by reference]. This assay is based on an ATP-driven bioluminescent reaction and was used to determine the concentration of CAY-1 which decreased the P. carinii ATP pools."}}, "note": "Like-named read-outs stand apart in the source and are kept apart here."}
{"molecule": "cyclainorin", "values": [{"measurement": "inhibitory properties", "setting": "[1]", "value": "inhibitory properties"}]}
{"molecule": "CC1(C)S[C@@H]2[C@H](NC(=O)[C@H](N)c3ccccc3)C(=O)N2[C@H]1C(=O)O", "note": "[Ampicillin, reference compound]", "values": [{"measurement": "activity at 29 µM", "setting": "[2]; 24 h, Day 1, 10 μg/ml, 29 μM", "value": 96, "unit": "%"}, {"measurement": "activity at 29 µM", "setting": "[2]; 48 h, Day 2, 10 μg/ml, 29 μM", "value": 94.7, "unit": "%"}, {"measurement": "activity at 29 µM", "setting": "[2]; 72 h, Day 3, 10 μg/ml, 29 μM", "value": 94.8, "unit": "%"}]}
{"molecule": "CC1(C)[C@@H](O[C@@H]2OC[C@H](O[C@@H]3O[C@H](CO)[C@@H](O)[C@H](O)[C@H]3O[C@@H]3OC[C@H](O)[C@H](O)[C@H]3O)[C@H](O)[C@H]2O[C@@H]2O[C@H](CO)[C@@H](O)[C@H](O)[C@H]2O)CC[C@]2(C)[C@H]3CC[C@]45OC[C@@]6(CC[C@](C)(C=O)C[C@H]64)[C@H](O)C[C@@]5(C)[C@]3(C)CC[C@@H]12", "note": "[deglucocyclamin]", "values": [{"measurement": "inhibitory properties", "setting": "[1]", "value": "inhibitory properties"}]}
{"molecule": "N=C(N)c1ccc(OCCCCCOc2ccc(C(=N)N)cc2)cc1", "note": "[Pentamidine, reference compound]", "values": [{"measurement": "activity at 2.9 µM", "setting": "[2]; 24 h", "value": 46.2, "unit": "%"}, {"measurement": "activity at 29 µM", "setting": "[2]; 24 h", "value": 5.4, "unit": "%"}, {"measurement": "activity at 2.9 µM", "setting": "[2]; 48 h", "value": 22, "unit": "%"}, {"measurement": "activity at 29 µM", "setting": "[2]; 48 h", "value": 3.5, "unit": "%"}, {"measurement": "activity at 2.9 µM", "setting": "[2]; 72 h", "value": 3.9, "unit": "%"}, {"measurement": "activity at 29 µM", "setting": "[2]; 72 h", "value": 1.2, "unit": "%"}]}
